Laboratory results as given in ChEMBL document CHEMBL1201862, “PubChem BioAssay data set” (2004).
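Cells were grown in 96-well plates and exposed to each compound for 48 hours at five concentrations; endpoints were interpolated linearly between bracketing concentrations, or set to the highest concentration if not reached. GI50 = concentration required for 50% inhibition of growth.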 Active and inactive are the calls of the source. Rule as the data show it: active = GI50 up to about 1.1 µM and inactive = higher.

Assays:
Test in all cases: NCI anticancer screen, dose series, 48 h
SF-295 = tested on: SF-295
CCRF-CEM = tested on: CCRF-CEM
HCT-15 = tested on: HCT-15
MDA-MB-231 = tested on: MDA-MB-231
IGROV-1 = tested on: IGROV-1
MDA-N = tested on: MDA-N
ACHN = tested on: ACHN
MCF7 = tested on: MCF7
A549 = tested on: A549
NCI-H522 = tested on: NCI-H522
RPMI-8226 = tested on: RPMI-8226
HOP-92 = tested on: HOP-92
HL-60 = tested on: HL-60
SK-MEL-5 = tested on: SK-MEL-5
UO-31 = tested on: UO-31
NCI-H460 = tested on: NCI-H460
T47D = tested on: T47D
SF-268 = tested on: SF-268
SR = tested on: SR
UACC-257 = tested on: UACC-257

Compound | GI50 (SF-295) | GI50 (CCRF-CEM) | GI50 (HCT-15) [µM] | GI50 (MDA-MB-231) | GI50 (IGROV-1) | GI50 (MDA-N) | GI50 (ACHN) | GI50 (MCF7) | GI50 (A549) | GI50 (NCI-H522) | GI50 (RPMI-8226) | GI50 (HOP-92) | GI50 (HL-60) | GI50 (SK-MEL-5) | GI50 (UO-31) | GI50 (NCI-H460) | GI50 (T47D) | GI50 (SF-268) | GI50 (SR) | GI50 (UACC-257)
Cc1ccc2ccccc2c1CSc1nc(N)nc2c1ncn2CC(C)C | 5.86 µM (inactive) | 6.15 µM (inactive) | 10.9 | > 30.9 µM (inactive) | 51.2 µM (inactive) | 15.7 µM (inactive) | 16.4 µM (inactive) | 12.9 µM (inactive) | 10.9 µM (inactive) | 8.71 µM (inactive) | 5.65 µM (inactive) | 17.8 µM (inactive) | 16.2 µM (inactive) | 7.05 µM (inactive) | 2.79 µM (inactive) | 14.2 µM (inactive) | 5.05 µM (inactive) | 45.8 µM (inactive) | 4.79 µM (inactive) | 11.7 µM (inactive)
COc1ccc(/C=C(\C(=C/c2ccc(OC)cc2)[N+](=O)[O-])[N+](=O)[O-])cc1 | 14.3 µM (inactive) | 0.429 µM (active) | 2.55 | 2.07 µM (inactive) | 4.55 µM (inactive) | 3.14 µM (inactive) | 5.96 µM (inactive) | 6.31 µM (inactive) | 22.7 µM (inactive) | 2.58 µM (inactive) | 3.15 µM (inactive) | 3.84 µM (inactive) | 0.261 µM (active) | 4.07 µM (inactive) | 4.53 µM (inactive) | 5.64 µM (inactive) | 8.83 µM (inactive) | 4.09 µM (inactive) | 2.03 µM (inactive) | 5.22 µM (inactive)
CC1=CC(C)C(O)C(C)/C=C\C(O)C/C=C(/C)C(=O)CC(O)C(C)\C=C/C=C\C=C/C(=O)NC2=C(O)C(=O)c3c(cc(C)c(O)c3C1=O)C2=O (stereo not given) | > 100 µM (inactive) | 69.2 µM (inactive) | > 100 | > 100 µM (inactive) | 74.8 µM (inactive) | > 100 µM (inactive) | > 100 µM (inactive) | 25.8 µM (inactive) | > 100 µM (inactive) | > 100 µM (inactive) | > 100 µM (inactive) | > 100 µM (inactive) | > 100 µM (inactive) | 91 µM (inactive) | > 100 µM (inactive) | > 100 µM (inactive) | > 100 µM (inactive) | 94.4 µM (inactive) | 31.9 µM (inactive) | > 100 µM (inactive)
CSc1c(C#N)c(N)nc2c(/N=N\c3ccc(Br)cc3)c(N)nn12 | 8.63 µM (inactive) | 3.12 µM (inactive) | 3.5 | 6.97 µM (inactive) | 3.01 µM (inactive) | 6.71 µM (inactive) | 7 µM (inactive) | 3.16 µM (inactive) | 8.99 µM (inactive) | 6.41 µM (inactive) | 9.84 µM (inactive) | 6.81 µM (inactive) | 2.82 µM (inactive) | 18.1 µM (inactive) | 14.8 µM (inactive) | 12.8 µM (inactive) | 2 µM (inactive) | 5.82 µM (inactive) | 2.55 µM (inactive) | 8.05 µM (inactive)
O=C1CCCC1C(O)(C(F)(F)F)C(F)(F)F (stereo not given) | > 100 µM (inactive) | > 100 µM (inactive) | > 100 | > 100 µM (inactive) | > 100 µM (inactive) | > 100 µM (inactive) | > 100 µM (inactive) | > 100 µM (inactive) | > 100 µM (inactive) | > 100 µM (inactive) | > 100 µM (inactive) | > 100 µM (inactive) | > 100 µM (inactive) | > 100 µM (inactive) | > 100 µM (inactive) | > 100 µM (inactive) | > 100 µM (inactive) | > 100 µM (inactive) | > 100 µM (inactive) | > 100 µM (inactive)
Clc1ccc(Cc2nc3ccccc3nc2-c2cccc(Cl)c2)cc1 | 17.1 µM (inactive) | 0.0311 µM (active) | 1.66 | 2.47 µM (inactive) | 1.95 µM (inactive) | 2.28 µM (inactive) | 1.93 µM (inactive) | 2.92 µM (inactive) | 15.6 µM (inactive) | 1.61 µM (inactive) | 0.405 µM (active) | 1.7 µM (inactive) | 2.51 µM (inactive) | 4.91 µM (inactive) | 1.78 µM (inactive) | 16.3 µM (inactive) | 3.35 µM (inactive) | 18.3 µM (inactive) | 1.54 µM (inactive) | 13.8 µM (inactive)
COc1ccccc1-c1cc(=O)c2ccc(OC)c(OC)c2o1 | 40.8 µM (inactive) | > 100 µM (inactive) | 41.4 | > 100 µM (inactive) | 97.1 µM (inactive) | 48.2 µM (inactive) | 39.4 µM (inactive) | 45.9 µM (inactive) | 45.6 µM (inactive) | 32.8 µM (inactive) | 47.6 µM (inactive) | 28.2 µM (inactive) | 27.5 µM (inactive) | 27.7 µM (inactive) | 30.2 µM (inactive) | 49.5 µM (inactive) | 19.3 µM (inactive) | > 100 µM (inactive) | > 100 µM (inactive) | 44.9 µM (inactive)
